Measured values as given in US10604512B2, “3-(1H-indol-2-yl)-1H-indazoles and therapeutic uses thereof” (Samumed, LLC, priority 2015, dated 2020).

Tests used:
Type in all cases: cell-based
[1] = test system: Wnt activity (Sp5-Luc reporter, TCF/LEF binding sites) in SW480 colon carcinoma cells; assay: Screening assay for Wnt activity: Sp5-Luc reporter gene assay in stably transduced SW480 colon carcinoma cells; conditions: Homo sapiens, overnight incubation, 10-point curve from 10 μM
Outline: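 SW480 cells stably transduced with a luciferase reporter driven by an Sp5 promoter of eight TCF/LEF sites were plated at 4,000 cells/well in 1% FBS medium. They were exposed overnight at 37° C to a 10-point 1:3 dilution series from 10 μM (0.1% DMSO). Luminescence was normalized to DMSO for four-parameter EC50, or percent inhibition at 10 μM.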

SW480 colon cancer cells = assay: Cell viability assay (CellTiter-Blue) in SW480 colon cancer cells; conditions: Homo sapiens, 96 h, four days, CellTiter-Blue
Outline: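 Resazurin reduction (Ex 560/Em 590 nm, ~3 h reagent incubation) served as the viability read-out after SW480 cells were treated for four days at 37 °C. Doses ran from 10 μM down to 0.0045 μM in eight 1:3 steps. Curves fitted non-linearly for EC50, else % inhibition at 10 μM reported.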

[2] = test system: primary human mesenchymal stem cells (hMSCs); assay: Induction of chondrogenesis in primary human mesenchymal stem cells (nodule imaging, Rhodamine B / Nile Red)
Description: Representative compounds were screened using primary human mesenchymal stem cells (hMSCs) to determine their ability to induce chondrogenesis (process by which cartilage is developed).
Primary human mesenchymal stem cells (hMSCs) were purchased from Lonza (Walkersville, Md.) and expanded in Mesenchymal Stem Cell Growth Media (Lonza). Cells between passage 3 and 6 were used for the experiments.
Each compound was dissolved in DMSO as a 10 mM stock and used to prepare compound source plates. For the 96 well assay, serial dilution (1:3, 6-point dose-response curves from 2700 nM to 10 nM) and compound transfer was performed using the ECHO 550 (Labcyte, Sunnyvale, Calif.) into 96-well clear bottom assay plates (Greiner Bio-One) with appropriate DMSO backfill for a final DMSO concentration of 0.03%. hMSCs were plated at 20,000 cells/well in 250 μL/well Incomplete Chondrogenic Induction Medium (Lonza; DMEM, dexamethasone, ascorbate, insulin-transferrin-selenium [ITS supplement], gentamycin-amphotericin [GA-1000], sodium pyruvate, proline and L-glutamine). TGF-β3 (10 ng/mL) was used as a positive control for differentiation while negative control wells were treated with 75 nL DMSO for normalization and calculating EC50 values. For the 384 well assay, serial dilution (1:3, 8-point dose-response curves from 5000 nM to 2.2 nM) and compound transfer was performed using the ECHO 550 (Labcyte, Sunnyvale, Calif.) into 384-well clear bottom assay plates (Greiner Bio-One) with appropriate DMSO backfill for a final DMSO concentration of 0.03%. hMSCs were plated at 8,000 cells/well in 80 μL/well Incomplete Chondrogenic Induction Medium (Lonza; DMEM, dexamethasone, ascorbate, insulin-transferrin-selenium [ITS supplement], gentamycin-amphotericin [GA-1000], sodium pyruvate, proline and L-glutamine). TGF-β3 (10 ng/mL) was used as a positive control for differentiation while negative control wells were treated with 25 nL DMSO for normalization and calculating EC50 values. Cells were incubated at 37° C. and 5% CO2 for 6 days. To image chondrogenic nodules, the cells were fixed using 4% formaldehyde (Electron Microscopy Sciences), and stained with 2 μg/mL Rhodamine B (Sigma-Aldrich) and 20 μM Nile Red (Sigma-Aldrich) [Johnson K., et. al, A Stem CellBased Approach to Cartilage Repair, Science, (2012), 336(6082), 717-721]. The nodules imaged (25 images per well for 96 well plates and 9 images per well for 384 well plates at 10× magnification) by excitation at 531 nm and emission at 625 nm and quantified using the CellInsight CX5 (Thermo Scientific). Area of nodules in each well was normalized to the average of 3 DMSO treated wells on the same plate using Excel (Microsoft Inc.). The normalized averages (fold change over DMSO) of 2 or 3 replicate wells for each compound concentration were calculated. Due to solubility limitations of some of the compounds, curve fitting was incomplete leading to inaccurate EC50 determinations.
Using TGF-β3 as a positive control, the concentration of representative compounds required to induce 50% levels of chondrogenesis is reported. In addition, the maximum activity of each compound and the respective dose that each compound reached maximum chondrogenesis activity is reported.

IL-6 = assay: Inhibition of IL-6 in LPS-stimulated THP-1 human monocyte cells (HTRF); conditions: IL-6 inhibition, LPS-stimulated THP-1 cells, HTRF
Outline: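 THP-1 cells serum-reduced (1% FBS, 24 h), then 5000 cells/well preincubated 2 h with compound (10-point 1:3 series from 10 μM, 0.1% DMSO) before 500 ng/mL LPS for 22 h at 37 °C. Secreted IL-6 quantified by HTRF 665/620 ratio; DMSO-normalised duplicates fitted to four-parameter EC50; above 10 μM, % inhibition at 10 μM given.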

[3] = test system: Primary human fibroblasts derived from IPF patients (LL29 cells) treated with TGF-β1; assay: Inhibition of the fibrotic process: αSMA staining in TGF-β1-treated primary human fibroblasts from IPF patients (LL29 cells); conditions: Fibroblast, 96 h, % αSMA-positive LL29 cells, TGF-β1 20 ng/mL, 4 days
Outline: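 LL29 IPF-patient fibroblasts in 1% FBS stimulated with TGF-β1 (20 ng/mL) and compound (10 μM–1.87 nM, 0.1% DMSO) for 4 days at 37 °C. SYTOX-positive cells excluded; % αSMA-positive cells imaged, normalized to TGF-β1/DMSO wells; EC50 by nonlinear regression, else % inhibition at 10 μM.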

| EC50 [1] | EC50 (SW480 colon cancer cells) | EC50 ([2]; concentration required to induce 50% levels of chondrogenesis vs TGF-β3 positive control, read-out: Conc (nM) of 50% TGF-β3 activity) | EC50 (IL-6) | SMILES | Emax ([2]; maximum chondrogenesis activity relative to TGF-β3 (10 ng/mL) positive control, read-out: Max. Activity as % TGF-β3 activity) | EC50 [3] |
| --- | --- | --- | --- | --- | --- | --- |
| 588 nM | 1400 nM | 10 nM | 329 nM | COc1cncc(-c2ccc3[nH]nc(-c4cc5c(-c6ccoc6)cccc5[nH]4)c3c2)c1 [Compound 720, 3-(4-(Furan-3-yl)-1H-indol-2-yl)-5-(5-methoxypyridin-3-yl)-1H-indazole] | 151% |  |
| 40 nM | 166 nM |  | 54 nM | CN(C)CCNc1cc(F)cc(-c2cccc3[nH]c(-c4n[nH]c5ccc(-c6cncc(NC(=O)C7CCCC7)c6)cc45)cc23)c1 [Compound 470, N-(5-(3-(4-(3-((2-(Dimethylamino)ethyl)amino)-5-fluorophenyl)-1H-indol-2-yl)-1H-indazol-5-yl)pyridin-3-yl)cyclopentanecarboxamide] |  | > 10000 nM |
| 224 nM | 458 nM |  | 77 nM | CN(C)CCNc1cc(F)cc(-c2cccc3[nH]c(-c4n[nH]c5ccc(-c6cncc(N7CC(N)C7)n6)cc45)cc23)c1 [Compound 810, N^1-(3-(2-(5-(6-(3-Aminoazetidin-1-yl)pyrazin-2-yl)-1H-indazol-3-yl)-1H-indol-4-yl)-5-fluorophenyl)-N^2,N^2-dimethylethane-1,2-diamine] |  | 653 nM |
| 450 nM | 1630 nM |  | 306 nM | CC(C)CC(=O)Nc1cncc(-c2ccc3[nH]nc(-c4cc5c(-c6ccncc6)cccc5[nH]4)c3c2)c1 [Compound 114, 3-Methyl-N-(5-(3-(4-(pyridin-4-yl)-1H-indol-2-yl)-1H-indazol-5-yl)pyridin-3-yl)butanamide] |  | 331 nM |
